Experimental findings from article PMC12631102, “SYT4 Interacts with PSMC6 to Facilitate Malignant Progression in Gastric Carcinoma via Activating Wnt/β-catenin Signaling” (International Journal of Biological Sciences, 2025) are described below.

This experiment concerns the target T1, Synaptotagmin-4 (SYT4) (Homo sapiens, UniProt Q9H2B2).
T1 construct: Recombinant SYT4 protein
T1 sequence (Q9H2B2 1-425): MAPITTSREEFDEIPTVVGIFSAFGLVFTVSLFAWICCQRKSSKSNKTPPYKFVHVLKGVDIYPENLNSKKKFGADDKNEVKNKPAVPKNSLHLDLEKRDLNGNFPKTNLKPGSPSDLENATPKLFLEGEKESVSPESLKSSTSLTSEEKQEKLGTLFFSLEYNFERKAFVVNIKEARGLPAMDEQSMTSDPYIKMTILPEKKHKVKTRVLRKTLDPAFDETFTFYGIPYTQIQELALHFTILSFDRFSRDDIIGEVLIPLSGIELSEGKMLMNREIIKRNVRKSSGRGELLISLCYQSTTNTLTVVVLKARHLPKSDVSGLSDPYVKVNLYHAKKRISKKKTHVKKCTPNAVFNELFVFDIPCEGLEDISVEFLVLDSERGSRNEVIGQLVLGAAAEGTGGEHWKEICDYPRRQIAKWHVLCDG
The experiment can be described thus: SPR (Biacore T200, SYT4 immobilized on CM5 chip). Type of experiment: binding. (SPR reads the build-up and loss of mass on a sensor chip optically.)

Each structure is given as a SMILES string.

`C=CC(=O)Nc1ccc2[nH]c(=O)n(C3CCN(Cc4ccc(-c5nc6cc[nH]c(=O)c6cc5-c5ccccc5)cc4)CC3)c2c1` [borussertib] gave a Kd of 16 µM.

Broadly, the Kd is the constant that tells how readily two partners part at equilibrium. Low readings indicate tighter binding, high ones weaker binding.
